Measurements published in patent publication US20260216238A1, “TETRATHIOMOLYBDIC ACID FOR USE IN TREATING COPPER METABOLISM-ASSOCIATED DISEASES OR DISORDERS (WILSON DISEASE)” (Alexion Pharmaceuticals, Inc., priority 2023, published 2026).
Where two headings read alike, the source gives them in different places.

What was measured:
[1] = test system: patients with Wilson disease (WD); assay: Study 301: daily mean AUEC of plasma directly measured non-ceruloplasmin-bound copper (dNCC), copper mobilization; format: in vivo, human; conditions: for Mean Daily dNCC AUEC0-48 w, LSM: ANCOVA; for Mean Daily dNCC AUEC0-48 w, LSM / Mean Daily dNCC AUEC0-48 w, Mean: multiple imputation; for Mean Daily dNCC AUEC0-48 w, Mean: Full Analysis Set; for Mean Daily dNCC AUEC0-48 w, Between Group LSM Diff / Mean Daily dNCC AUEC0-48 w, Within Group LSM: lower block of Table 5
Description: FIG. 1 provides a schematic view of the study design. […] This study is referred throughout as Study 301.
The primary endpoint integrated copper mobilization and sequestration (i.e., copper control) throughout the 48-week Primary Treatment Period by assessment of daily mean area under the effect-time curve (AUEC) of directly measured non-ceruloplasmin-bound copper (dNCC) concentration. […] Measurement of dNCC in plasma is highly sensitive and accurate, requiring no special formulas or assumptions. As proposed, dNCC AUEC0-48 W is an indirect measure of copper mobilization and sequestration.
This assessment is also applicable to SoC treatments. In addition, plasma Cp, CpC, plasma total copper, and LBC were measured with AUEC calculated for plasma total copper and LBC.
The AUEC for dNCC concentration was calculated using the trapezoidal rule, and then divided by number of days to yield a mean daily AUEC plasma dNCC concentration from baseline to Week 48 (expressed as μmol/L and described as AUEC0-48 W).
Tests were performed at a significance level of 0.05 (2-sided).

[2] = human, in vivo
Description: Pharmacokinetics: Blood samples for PK analysis were collected to measure plasma total molybdenum and plasma ultrafiltrate (PUF) molybdenum.

participants with WD = conditions: for Daily Net Copper Balance, Change from Baseline, Mean: Table 10; for Decrease from Baseline in Average Daily Net Copper Balance, Mean (SD): Table 13
Method: Study 204 is registered with ClinicalTrials.gov, number NCT04573309, and is described in Example 1 of U.S. Provisional Patent Application No. 63/237,120, filed Aug. 25, 2021, and incorporated by reference herein. […] The participants remained on a Cu-controlled diet, and Cu and Mo balance were measured on all intake (i.e., investigational agent, food and fluids) and all output (urine and feces). The Cu and Mo concentration of each sample was determined by inductively coupled plasma mass spectrometry (ICP-MS). Copper and Mo content of all intake and output was calculated based on the volume or weight of intake and output and the concentration of representative samples.
Collection periods for feces and urine varied in duration from 3 to 15 days to support assessment of both Cu and Mo balance before and at steady state for both 15 mg and 30 mg. Equilibration periods on Cu/Mo-controlled diets were a minimum of 48 hours. Copper balance was calculated as the mean daily Cu balance over each of the 4 collection periods. The interpretation of Cu balance was based on the criteria previously established when undertaking Cu balance studies with zinc treatment.
These participants had all intake (food and drink) and output (urine and feces) collected from Day −4 through Day −1 (baseline), from Day 1 through Day 8, and Day 25 through Day 39.

[3] = test system: patients with Wilson disease (WD); format: in vivo
Description: Adverse events were reported by the patient (or, when appropriate, by a caregiver, surrogate, or the patient's legally authorized representative). The Investigator and any qualified designees were responsible for detecting, documenting, and recording events that meet the definition of an AE or SAE and remain responsible for following up AEs that were serious, considered related to the study intervention or study procedures, or that caused the patient to discontinue the study.
The safety analysis was performed on the Safety Analysis Set. This dataset includes all patients who received at least 1 dose of randomized treatment. Patients were summarized according to the treatment actually received.
Acute worsening of neurologic symptoms typically within 6 months of start of therapy is a known complication associated with chelation therapy for WD. […] Neurologic AESI for Study 301 were considered as all AEs in the Medical Dictionary for Regulatory Activities (MedDRA) System Organ Class (SOC) “Nervous system disorders” or any other AE judged by the Investigator as an AESI.

[4] = Days 1-8 (Accumulation 15 mg/day)
[5] = Days 25-28 (Steady State 15 mg/day)
[6] = Days 31-35 (Accumulation 30 mg/day)
[7] = Days 36-39 (Steady State 30 mg/day)
[8] = Primary Evaluation Period, 48 Weeks

## bis-choline tetrathiomolybdate [TTM]
[1]; Cohort 1
  Mean Daily dNCC AUEC0-48 w, LSM Diff (TTM-SoC): 1.64 µmol/L
  Mean Daily dNCC AUEC0-48 w, LSM: 2.50 µmol/L
  Mean Daily dNCC AUEC0-48 w, Mean: 2.68 µmol/L
  Mean Daily dNCC AUEC0-48 w, Between Group LSM Diff: 1.72 µmol/L
  Mean Daily dNCC AUEC0-48 w, Within Group LSM: 2.59 µmol/L
[1]; Cohort 2
  Mean Daily dNCC AUEC0-48 w, LSM Diff (TTM-SoC): 3.79 µmol/L
  Mean Daily dNCC AUEC0-48 w, LSM: 4.76 µmol/L
  Mean Daily dNCC AUEC0-48 w, Mean: 4.58 µmol/L
  Mean Daily dNCC AUEC0-48 w, Between Group LSM Diff: 3.68 µmol/L
  Mean Daily dNCC AUEC0-48 w, Within Group LSM: 4.64 µmol/L
[1]; Overall
  Mean Daily dNCC AUEC0-48 w, LSM Diff (TTM-SoC): 2.18 µmol/L
  Mean Daily dNCC AUEC0-48 w, LSM: 3.18 µmol/L
  Mean Daily dNCC AUEC0-48 w, Mean: 3.12 µmol/L
  Mean Daily dNCC AUEC0-48 w, Between Group LSM Diff: 2.12 µmol/L
  Mean Daily dNCC AUEC0-48 w, Within Group LSM: 3.06 µmol/L
[1]; W0-W48, cohort 1 incomplete response or intolerant to prior SoC, p<0.0001
  dNCC area under the effect curve, LSM difference (SE) TTM versus SoC: 1.64 (0.297)
[2]
  Daily Mean AUC(0-48 weeks) PUF Mo, Mean: 0.1 mmol/L
Participants with WD; [4]
  Daily Net Copper Balance, Change from Baseline, Median: -0.4291 mg
  Daily Net Copper Balance, Value, Median: 0.6678 mg
  Increase from Baseline in Average Daily Fecal Copper Excretion, Mean: 0.3278 mg
  Increase from Baseline in Average Daily Urine Copper Excretion, Mean: -0.0108 mg
  Daily Net Copper Balance, Change from Baseline, Mean: -0.4848 mg
  Decrease from Baseline in Average Daily Net Copper Balance, Mean (SD): −0.4848(0.119) mg
Participants with WD; Days 1-8 (Accumulation 15 mg/day), N=3
  Daily Net Copper Balance, Value, Mean: 0.7654 mg
Participants with WD; Days 1-39
  Decrease from Baseline in Average Daily Net Copper Balance, Mean (SD): −0.448 (0.1469) mg
Participants with WD; [5]
  Daily Net Copper Balance, Change from Baseline, Median: -0.1459 mg
  Daily Net Copper Balance, Value, Mean: 0.7638 mg
  Daily Net Copper Balance, Value, Median: 1.1434 mg
  Increase from Baseline in Average Daily Fecal Copper Excretion, Mean: 0.4931 mg
  Increase from Baseline in Average Daily Urine Copper Excretion, Mean: 0.1042 mg
  Daily Net Copper Balance, Change from Baseline, Mean: -0.4865 mg
  Decrease from Baseline in Average Daily Net Copper Balance, Mean (SD): −0.6381 (0.7673) mg
Participants with WD; [6]
  Daily Net Copper Balance, Change from Baseline, Median: -0.3707 mg
  Daily Net Copper Balance, Value, Mean: 0.8577 mg
  Daily Net Copper Balance, Value, Median: 0.8312 mg
  Increase from Baseline in Average Daily Fecal Copper Excretion, Mean: 0.3879 mg
  Increase from Baseline in Average Daily Urine Copper Excretion, Mean: 0.0744 mg
  Daily Net Copper Balance, Change from Baseline, Mean: -0.3925 mg
  Decrease from Baseline in Average Daily Net Copper Balance, Mean (SD): −0.3925 (0.05781) mg
Participants with WD; [7]
  Daily Net Copper Balance, Change from Baseline, Median: -0.4225 mg
  Daily Net Copper Balance, Value, Mean: 0.8582 mg
  Daily Net Copper Balance, Value, Median: 0.7986 mg
  Increase from Baseline in Average Daily Fecal Copper Excretion, Mean: 0.0899 mg
  Increase from Baseline in Average Daily Urine Copper Excretion, Mean: 0.1042 mg
  Daily Net Copper Balance, Change from Baseline, Mean: -0.3921 mg
  Decrease from Baseline in Average Daily Net Copper Balance, Mean (SD): −0.2765 (0.3138) mg
[3]; Primary Evaluation Period
  AEs in SOC Ear and labyrinth disorders: 5.1%
  AEs in SOC Hepatobiliary disorders: 6.6%
  AEs in SOC Investigations: 33.6%
  AEs in SOC Psychiatric disorders: 19.0%
  AEs in SOC Skin and subcutaneous tissue disorders: 21.9%
  incidence of SAEs, Nervous system disorders: 4.4%
  incidence of headache: 8.0%
  incidence of tremor: 7.3%
  participants with highest severity Grade 1 AEs, Nervous system disorders: 24.1%
  participants with highest severity Grade 2 AEs, Nervous system disorders: 13.9%
[3]; [8]
  Alanine aminotransferase increased AE, % participants: 14.6%
  Alanine aminotransferase increased AE, N participants: 20
  Aspartate aminotransferase increased AE, % participants: 2.9%
  Aspartate aminotransferase increased AE, N participants: 4
  Ear and labyrinth disorders (SOC) AE, % participants: 5.1%
  Ear and labyrinth disorders (SOC) AE, N participants: 7
  Fatigue AE, % participants: 9.5%
  Fatigue AE, N participants: 13
  Gamma-glutamyltransferase increased AE, % participants: 2.2%
  Gamma-glutamyltransferase increased AE, N participants: 3
  Hepatic enzyme increased AE, % participants: 2.2%
  Hepatic enzyme increased AE, N participants: 3
  Hepatobiliary disorders (SOC) AE, % participants: 6.6%
  Hepatobiliary disorders (SOC) AE, N participants: 9
  Investigations (SOC) AE, % participants: 33.6%
  Investigations (SOC) AE, N participants: 46
  Nervous system disorders (SOC) AE, % participants: 34.3%
  Nervous system disorders (SOC) AE, N participants: 47
  Neutrophil count decreased AE, % participants: 1.5%
  Neutrophil count decreased AE, N participants: 2
  Pruritus AE, % participants: 3.6%
  Pruritus AE, N participants: 5
  Psychiatric disorders (SOC) AE, % participants: 19.0%
  Psychiatric disorders (SOC) AE, N participants: 26
  Pyrexia AE, % participants: 5.8%
  Pyrexia AE, N participants: 8
  Rash AE, % participants: 6.6%
  Rash AE, N participants: 9
  Skin and subcutaneous tissue disorders (SOC) AE, % participants: 21.9%
  Skin and subcutaneous tissue disorders (SOC) AE, N participants: 30
  incidence of AEs in SOC Nervous system disorders: 34.3%
[3]; cohort 1 incomplete response or intolerant
  patients with neurologic AEs: 31.8%
[3]; seven events in 5 participants
  participants with neurologic AESI in SOC Psychiatric disorders: 3.6%
